This note sets out measurements from ChEMBL document CHEMBL1201862, “PubChem BioAssay data set” (2004).

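Five compound concentrations were applied to cells in 96-well plates for 48 hours; endpoints were derived by simple linear interpolation of the resulting dose-response curve. The concentration for 50% growth inhibition is given as GI50.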 Activity calls are given as the source filed them. No stated cut-off is given here; in the data, active = GI50 up to about 1.1 µM and inactive = higher. Some results are limits rather than exact numbers.

Among the test systems are NCI-H460; TK-10; 786-0; T47D; SNB-75; MOLT-4; KM12; OVCAR-4; HCT-15; SNB-19; RXF 393; UACC-257; M14; SK-MEL-28; NCI-H226; HCC 2998; UACC-62; HCT-116; A498.
Holding throughout (test): DTP human tumour cell line panel, 48 h

Regarding `COc1cc(NCc2ccc3oc(=O)c(-c4ccccc4)nc3c2)cc(OC)c1OC`, the GI50 with NCI-H460, in the experiment on TK-10, in the experiment on 786-0, in the experiment with T47D, in the experiment with SNB-75 and with MOLT-4 was > 10 µM (inactive) throughout. The GI50 with KM12 is > 10 µM (inactive); in the experiment on OVCAR-4, > 10 µM (inactive); in the experiment with HCT-15, > 10 µM; with SNB-19, > 10 µM (inactive); in the experiment on RXF 393, > 10 µM (inactive); with UACC-257, > 10 µM (inactive). The GI50 in the experiment on M14, with SK-MEL-28, with NCI-H226, in the experiment on HCC 2998, in the experiment with UACC-62 and with HCT-116 was > 10 µM (inactive) throughout.

For the compound `COc1cc(O)c2c(c1)C(=O)C1=C(C2=O)C(O)C[C@@](C)(O)C1` (some centres not stated), the GI50 was 1.92 µM (inactive) with NCI-H460; 1.98 µM (inactive) in the experiment on TK-10; 3.08 µM (inactive) with 786-0; 3.41 µM (inactive) in the experiment on SNB-75; 2.22 µM (inactive) in the experiment on MOLT-4; 2.47 µM (inactive) in the experiment on KM12. The GI50 in the experiment on OVCAR-4 is 1.51 µM (inactive); in the experiment with A498, 1.28 µM (inactive); in the experiment on HCT-15, 0.358 µM; in the experiment on SNB-19, 4.34 µM (inactive); with RXF 393, 1.32 µM (inactive); in the experiment on UACC-257, 0.335 µM (active). For the same compound, the GI50 was 0.871 µM (active) in the experiment on M14; 1.5 µM (inactive) in the experiment with SK-MEL-28; 5.82 µM (inactive) in the experiment with NCI-H226; 1.47 µM (inactive) in the experiment on HCC 2998; 1.37 µM (inactive) in the experiment on UACC-62; 0.445 µM (active) with HCT-116.

Turning to `COC(=O)Cc1cc(=O)oc2c1C(=O)CCC2`, the GI50 in the experiment on NCI-H460 is > 100 µM (inactive); with TK-10, > 100 µM (inactive); in the experiment with 786-0, > 100 µM (inactive); in the experiment with SNB-75 it was 12.1 µM (inactive); in the experiment with MOLT-4 it was > 100 µM (inactive); with KM12, > 100 µM (inactive). In addition, the GI50 is > 100 µM (inactive) with OVCAR-4; > 100 µM (inactive) in the experiment with A498; > 100 µM in the experiment with HCT-15; > 100 µM (inactive) in the experiment with SNB-19; > 100 µM (inactive) in the experiment with RXF 393; > 100 µM (inactive) in the experiment on UACC-257. For the same compound, the GI50 in the experiment on M14, with SK-MEL-28, in the experiment with NCI-H226, in the experiment with HCC 2998, in the experiment with UACC-62 and in the experiment with HCT-116 was > 100 µM (inactive) in each case.

On to `Clc1ccc(OCc2nnc3sc(SSc4nn5c(COc6ccc(Cl)cc6)nnc5s4)nn23)cc1`, for which the GI50 is > 100 µM (inactive) in the experiment on NCI-H460; > 100 µM (inactive) in the experiment with 786-0; 49.5 µM (inactive) with T47D; > 100 µM (inactive) with SNB-75; > 100 µM (inactive) in the experiment with KM12; > 100 µM (inactive) in the experiment on SNB-19. Also, the GI50 with UACC-257, in the experiment with M14, in the experiment on SK-MEL-28, in the experiment on NCI-H226 and in the experiment with HCT-116 was > 100 µM (inactive) throughout.

With `C[S+](C)CCOC(=O)C(=[N+]=[N-])c1ccc([N+](=O)[O-])cc1`, the GI50 with NCI-H460, in the experiment on TK-10, with 786-0, in the experiment with SNB-75, in the experiment with MOLT-4 and with KM12 was > 100 µM (inactive) each time. In addition, the GI50 with OVCAR-4 was > 100 µM (inactive); in the experiment with A498, > 100 µM (inactive); in the experiment with HCT-15, > 100 µM; in the experiment with SNB-19 it was > 100 µM (inactive); in the experiment on RXF 393, > 100 µM (inactive); in the experiment with UACC-257, > 100 µM (inactive). Further, the GI50 in the experiment with M14, in the experiment on NCI-H226, with HCC 2998, in the experiment with UACC-62 and with HCT-116 was > 100 µM (inactive) throughout.

Regarding `Cc1ccc2c(C)c3ccc4ccccc4c3c[n+]2c1.[O-][Cl+3]([O-])([O-])[O-]`, the GI50 was 14.3 µM (inactive) with NCI-H460; 53.5 µM (inactive) in the experiment on TK-10; 9.18 µM (inactive) in the experiment with 786-0; 11.2 µM (inactive) in the experiment on SNB-75; 3.99 µM (inactive) in the experiment on MOLT-4; 2.94 µM (inactive) in the experiment on KM12. For the same compound, the GI50 in the experiment with OVCAR-4 is 16 µM (inactive); in the experiment with A498, 60 µM (inactive); with HCT-15, 52.1 µM; with SNB-19, 6.46 µM (inactive); in the experiment on RXF 393, 20.1 µM (inactive); in the experiment on UACC-257, 12.4 µM (inactive). Moreover, the GI50 in the experiment on M14 was 17.9 µM (inactive); in the experiment with SK-MEL-28, 15.3 µM (inactive); in the experiment on NCI-H226, 5.81 µM (inactive); in the experiment on HCC 2998, 12.9 µM (inactive); with UACC-62 it was 13.7 µM (inactive); with HCT-116 it was 27.5 µM (inactive).

Take `CCOC(=O)c1nc2ccc(Cl)cc2c2c1CCO2`: the GI50 in the experiment on NCI-H460 is > 100 µM (inactive); in the experiment on TK-10, 76.7 µM (inactive); with 786-0, > 100 µM (inactive); in the experiment on SNB-75 it was 24 µM (inactive); in the experiment with MOLT-4 it was 53.5 µM (inactive); in the experiment with KM12, > 100 µM (inactive). Further, the GI50 with OVCAR-4 is 70.1 µM (inactive); with A498, 31 µM (inactive); in the experiment on HCT-15, 99.1 µM; in the experiment with SNB-19 it was > 100 µM (inactive); in the experiment with RXF 393, 41.5 µM (inactive); in the experiment on UACC-257, > 100 µM (inactive). The GI50 is > 100 µM (inactive) with M14; > 100 µM (inactive) in the experiment on SK-MEL-28; > 100 µM (inactive) with NCI-H226; > 100 µM (inactive) with HCC 2998; 87.7 µM (inactive) in the experiment on UACC-62; 57 µM (inactive) in the experiment on HCT-116.

Turning to `Cc1ccccc1-c1c(N)nc(NC#N)nc1C(=O)Nc1ccccc1`, the GI50 is > 100 µM (inactive) in the experiment on NCI-H460; > 100 µM (inactive) in the experiment on TK-10; > 100 µM (inactive) with 786-0; 76.4 µM (inactive) with SNB-75; > 100 µM (inactive) in the experiment on MOLT-4; > 100 µM (inactive) in the experiment on KM12. Further, the GI50 with OVCAR-4 is > 100 µM (inactive); with A498 it was > 100 µM (inactive); in the experiment with HCT-15, > 100 µM; in the experiment with SNB-19, > 100 µM (inactive); with RXF 393, > 100 µM (inactive); with UACC-257 it was > 100 µM (inactive). Further, the GI50 in the experiment with M14, in the experiment on SK-MEL-28, in the experiment with NCI-H226, with HCC 2998, with UACC-62 and in the experiment on HCT-116 was > 100 µM (inactive) in each case.

On to `Nc1ccc(-c2nn3c(COc4ccc(Cl)cc4)nnc3s2)cc1`, for which the GI50 in the experiment with NCI-H460 is 40 µM (inactive); with TK-10 it was > 100 µM (inactive); in the experiment on 786-0 it was > 100 µM (inactive); with T47D it was > 100 µM (inactive); with SNB-75 it was > 100 µM (inactive); with MOLT-4, 51.3 µM (inactive). The GI50 in the experiment with OVCAR-4 was > 100 µM (inactive); in the experiment with HCT-15, > 100 µM; in the experiment with SNB-19, 88.1 µM (inactive); with RXF 393, 49.3 µM (inactive); with UACC-257 it was > 100 µM (inactive); in the experiment on M14, > 100 µM (inactive). The GI50 with SK-MEL-28, with HCC 2998 and with UACC-62 was > 100 µM (inactive) in each case.

For `OC1CN=C2c3ccccc3C(O)(c3ccc(Cl)cc3)N2C1` (configuration not stated), the GI50 in the experiment on NCI-H460 is 43.9 µM (inactive); in the experiment with TK-10, 20.2 µM (inactive); in the experiment with 786-0, 55 µM (inactive); with T47D, > 100 µM (inactive); with SNB-75 it was 19.8 µM (inactive); with MOLT-4, 31 µM (inactive). The GI50 was 52.4 µM (inactive) in the experiment on KM12; > 100 µM (inactive) in the experiment with OVCAR-4; 60 µM (inactive) in the experiment on SNB-19; 50 µM (inactive) in the experiment with RXF 393; 14.8 µM (inactive) in the experiment with M14; 49.7 µM (inactive) in the experiment with SK-MEL-28. The GI50 is 83.4 µM (inactive) in the experiment with NCI-H226, 17.1 µM (inactive) in the experiment with HCC 2998, 45.4 µM (inactive) in the experiment with UACC-62 and 35.6 µM (inactive) in the experiment on HCT-116.

With `N#Cc1ccc(/C=N/C23CC4CC(CC(C4)C2)C3)cc1`, the GI50 was > 100 µM (inactive) in the experiment with NCI-H460; > 100 µM (inactive) in the experiment on TK-10; > 100 µM (inactive) in the experiment with 786-0; > 10 µM (inactive) with SNB-75; 78.5 µM (inactive) with MOLT-4; > 100 µM (inactive) in the experiment on KM12. Moreover, the GI50 is > 100 µM (inactive) with OVCAR-4; > 100 µM (inactive) in the experiment on A498; > 100 µM in the experiment with HCT-15; > 100 µM (inactive) with SNB-19; > 100 µM (inactive) in the experiment with RXF 393; > 100 µM (inactive) in the experiment with UACC-257. For the same compound, the GI50 is > 100 µM (inactive) with M14; > 100 µM (inactive) with SK-MEL-28; > 100 µM (inactive) in the experiment on NCI-H226; > 100 µM (inactive) in the experiment on HCC 2998; > 100 µM (inactive) in the experiment on UACC-62; 39.4 µM (inactive) with HCT-116.

As for `Cc1ccc(/C=N/Nc2nc3ccccc3s2)s1`, the GI50 in the experiment on TK-10 was 69.2 µM (inactive); in the experiment with 786-0 it was 66.5 µM (inactive); in the experiment with T47D, 4.05 µM (inactive); in the experiment on SNB-75, 46.3 µM (inactive); with MOLT-4, > 100 µM (inactive); in the experiment with KM12 it was 49.1 µM (inactive). For the same compound, the GI50 was 34.4 µM (inactive) in the experiment with OVCAR-4; 19.4 µM with HCT-15; 51.9 µM (inactive) in the experiment on SNB-19; 82.6 µM (inactive) in the experiment with RXF 393; > 100 µM (inactive) in the experiment on UACC-257; > 100 µM (inactive) in the experiment on M14. In addition, the GI50 is > 100 µM (inactive) with SK-MEL-28; > 100 µM (inactive) with NCI-H226; 55.6 µM (inactive) in the experiment with HCC 2998; 74.6 µM (inactive) in the experiment on UACC-62; > 100 µM (inactive) with HCT-116.

What is called GI50 is the concentration giving 50% growth inhibition.
